Experimental data published in PubChem BioAssay (NCI).
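1) Cells in 96-well plates. 2) Compound, 48 h, 5 concentrations. 3) Linear interpolation between surrounding doses. 4) Unreached endpoint = highest concentration. GI50: concentration for 50% inhibition of growth. TGI denotes the concentration required for complete inhibition of growth.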

Columns and labels:
Assay in all cases: growth of human tumour cells (NCI), 48 h
[1] = test system: CCRF-CEM leukemia
[2] = test system: COLO 205 colon
[3] = test system: DU-145 prostate
[4] = test system: HCT-116 colon
[5] = test system: K-562 leukemia
[6] = test system: KM12 colon
[7] = test system: LOX IMVI melanoma
[8] = test system: MOLT-4 leukemia
[9] = test system: NCI-H23 lung
[10] = test system: OVCAR-3 ovarian

| Structure (SMILES) | GI50 [1] | TGI [1] | GI50 [2] | TGI [2] | GI50 [3] | TGI [3] | GI50 [4] | TGI [4] | GI50 [5] | TGI [5] | GI50 [6] | TGI [6] | GI50 [7] | TGI [7] | GI50 [8] | TGI [8] | GI50 [9] | TGI [9] | GI50 [10] | TGI [10] |
| --- | --- | --- | --- | --- | --- | --- | --- | --- | --- | --- | --- | --- | --- | --- | --- | --- | --- | --- | --- | --- |
| Nc1nc2c(nnn2C2OC(CO)C(O)C2O)c(=O)[nH]1 (configuration not stated) | 0.676 µM | > 100 µM | 0.393 µM | 1.67 µM | 0.371 µM | > 78.8 µM | 2.16 µM | > 100 µM | 2.06 µM | > 100 µM | 0.97 µM | > 46.8 µM | 0.475 µM | > 100 µM | 0.847 µM | > 100 µM | 1.54 µM | > 100 µM | 1.17 µM | 10.7 µM |
| CCCC[n+]1c(/C=C\c2c(OC)cc(OC)cc2OC)ccc2ccccc21 | 1.48 µM | 18.4 µM | 0.332 µM | 1.19 µM | 1.04 µM | 11.1 µM | 0.413 µM | 3.48 µM | 0.294 µM | > 38.6 µM | 0.345 µM | 1.59 µM | 0.827 µM | 2.58 µM | 1.64 µM | 8.92 µM | 0.779 µM | 8.17 µM | 0.515 µM | 2.57 µM |
| CO[C@]12C=C/C(=C(/C(=O)OCc3cccnc3)C(=O)CCCCCCCC[C@@]3(OC)C=C/C(=C(/C(=O)OCc4cccnc4)C(=O)CCCCCCCC1)O3)O2 | 0.741 µM | 7.8 µM | 1.49 µM | 5.06 µM | 1.76 µM | 12.7 µM | 0.275 µM | 1.22 µM | 1.46 µM | > 50 µM | 1.03 µM | 2.38 µM | 0.585 µM | 1.6 µM |  |  | 0.79 µM | 1.87 µM | 1.16 µM | 3.84 µM |
| COc1ccc(-c2nc(Nc3ccc(-c4nc5ccccc5[nH]4)cc3)nc(N3CCOCC3)n2)cc1 | 3.11 µM | > 100 µM | 1.92 µM | 4.21 µM | 4.54 µM | > 100 µM | 1.9 µM | 3.54 µM |  |  | 2.06 µM | 5.69 µM |  |  | 2.15 µM | 6.13 µM | 2.57 µM | 9.9 µM |  |  |
| CC1SC2(CCC(c3ccccc3)CC2)N(NC(=O)c2[nH]c3ccc(F)cc3c2-c2ccccc2)C1=O (configuration not stated) | 1.59 µM | 13.4 µM | 2.96 µM | 10.5 µM | 4.33 µM | 17.8 µM | 1.94 µM | 4.56 µM | 2.11 µM | 6.1 µM | 2.32 µM | 6.91 µM | 2.9 µM | 14 µM |  |  | 4.4 µM | 19 µM | 4.33 µM | 53.8 µM |
| O=C1C(Nc2ccc(Br)cc2)=C(I)C(=O)c2ncccc21 | 0.859 µM | 2.97 µM | 1.19 µM | 3.49 µM | 1.14 µM | 4.26 µM | 0.336 µM | 1.08 µM | 0.499 µM | 3.61 µM | 2.05 µM | 8.41 µM | 0.668 µM | 1.41 µM | 0.912 µM | 3.48 µM | 0.829 µM | 2.14 µM | 0.154 µM | 0.524 µM |
| O=S(=O)(c1ccc(Br)cc1)N1CCN(S(=O)(=O)c2ccc(Br)cc2)CC1 |  | > 100 µM |  | > 100 µM |  | > 100 µM |  | > 100 µM |  | > 100 µM |  | > 100 µM |  | > 100 µM |  | 26.7 µM |  | > 100 µM |  | > 100 µM |
| O=c1c2c(c3ccccc3n1-c1ccccc1)NC(=S)NC2c1ccc(Cl)cc1 (configuration not stated) | 3.79 µM | > 100 µM | 8.09 µM | 29.1 µM | 3 µM | 28.5 µM | 1.96 µM | 7.32 µM | 4.04 µM | > 100 µM | 1.88 µM | 11.7 µM | 2.59 µM | 33.4 µM | 4.17 µM | > 100 µM | 2.74 µM | 50.7 µM | 2.86 µM | 15.6 µM |
| O=C1CCCCC=C1C[N+](=O)[O-] | 5.7 µM | 23.3 µM | 11.6 µM | 39.7 µM | 27.3 µM | 96.3 µM | 17 µM | 50.8 µM | 22.5 µM | > 100 µM | 45.1 µM | > 100 µM | 18.4 µM | 39.1 µM | 11.9 µM | 31 µM | 27.5 µM | 69.9 µM | 23.9 µM | 69.1 µM |
| CC(C)(CCN=C(N)Nc1ccccn1)c1ccc(C(F)(F)F)cc1 | 17.7 µM | 58.4 µM | 13.3 µM | 28.1 µM | 16.2 µM | 31.8 µM | 10.6 µM | 24.3 µM |  |  | 15.8 µM | 30.9 µM | 14.2 µM | 27.6 µM | 14.5 µM | 37.4 µM | 12.7 µM | 27.6 µM | 13.7 µM | 29.5 µM |
| CCOC(=O)c1ccc2c(c1)nc(/C=C/c1ccc(Cl)cc1)n2-c1cc(C(C)(C)C)[nH]n1 | 7.54 µM | > 100 µM | 28.6 µM | > 100 µM | 21.5 µM | > 100 µM | 3.42 µM | 12.4 µM | 4.41 µM | > 100 µM | 12.9 µM | > 100 µM |  |  | 4.74 µM | > 100 µM | 19.3 µM | > 100 µM | 2.86 µM | 8.26 µM |
| CCC(CCC(C)C1CCC2C3CC=C4CC(OC5OC(CO)C(O)C(O)C5O)CCC4(C)C3CCC12C)C(C)C (configuration not stated) |  | > 100 µM |  | > 100 µM |  | > 100 µM |  | > 100 µM |  |  |  | > 100 µM |  | > 100 µM |  | > 100 µM |  | > 100 µM |  | > 100 µM |
| O=C(NNc1ccc(F)cc1)C1CCC(CNS(=O)(=O)c2ccc(Cl)c(Cl)c2)CC1 (configuration not stated) | 16.1 µM | > 50 µM | 14.4 µM | > 50 µM | 5.52 µM | > 50 µM | 6.51 µM | 33.9 µM | 1.71 µM | > 50 µM | 1.38 µM | 42.6 µM | 2.08 µM | 14.4 µM |  |  |  |  | 2.11 µM | 13.9 µM |
| c1ccc(CN2CCC3(CC2)SSC2(CCN(Cc4ccccc4)CC2)SS3)cc1 |  |  |  | > 100 µM |  | > 100 µM |  | > 100 µM |  | > 100 µM |  | > 100 µM |  | > 100 µM |  | > 100 µM |  | > 100 µM |  | > 100 µM |
| CC1(C)CCCC(C)(C2CCC3(C)C2C(O)CC2C4(C)CCC(O)C(C)(C)C4C(O)CC23C)O1 (configuration not stated) |  | 8.67 µM |  | 24.4 µM |  | 32.4 µM |  | > 100 µM |  | 25.1 µM |  | 24.7 µM |  | > 100 µM |  | 16.3 µM |  | 25.6 µM |  |  |
| O=c1c2cccc(F)c2sc2c(N3CCNCC3)nc3ccccc3c12 | 1.33 µM | 3.18 µM | 1.43 µM | 3.17 µM | 1.4 µM | 2.76 µM | 0.931 µM | 2.16 µM |  |  | 1.65 µM | 3.17 µM | 1.42 µM | 2.81 µM | 0.449 µM | 1.71 µM | 1.57 µM | 3.1 µM | 1.59 µM | 3.04 µM |
| O=[N+]([O-])c1ccc(Sc2nc(Cl)nc(NC3CCCC3)n2)cc1 |  |  | > 10 µM | > 10 µM | 7.99 µM | > 10 µM | 4.83 µM | > 10 µM | 5.89 µM | > 10 µM | > 10 µM | > 10 µM | > 10 µM | > 10 µM | > 10 µM | > 10 µM | > 10 µM | > 10 µM | > 10 µM | > 10 µM |
| COC1=C(Br)C(O)C2(C=C1Br)CC(C(=O)NCCCCNC(=O)C1=NOC3(C=C(Br)C(OC)=C(Br)C3O)C1)=NO2 (configuration not stated) |  | 40.3 µM |  | 30.9 µM |  | > 100 µM |  | 49.3 µM |  | 55.4 µM |  | 27.3 µM |  | 35.1 µM |  |  |  | > 100 µM |  | 39.4 µM |
| O=C(O)C1C2C=CC(C2)C1C(=O)O (configuration not stated) | > 100 µM | > 100 µM | > 100 µM | > 100 µM | > 100 µM | > 100 µM | > 100 µM | > 100 µM | > 100 µM | > 100 µM | > 100 µM | > 100 µM | > 100 µM | > 100 µM | > 100 µM | > 100 µM |  |  | > 100 µM | > 100 µM |
| CC(C)=CCC1=C(OCC(=O)O)C(=O)c2ccccc2C1=O |  | 54.7 µM |  | > 100 µM |  | > 100 µM |  | 66.8 µM |  | > 100 µM |  | > 100 µM |  | > 100 µM |  | > 100 µM |  | > 100 µM |  |  |
| NCCCn1c2c(c3ccc([N+](=O)[O-])cc3c1=O)C(=O)c1cc(-c3ccccc3)ccc1-2 | 0.238 µM | 0.712 µM |  |  | 0.491 µM | 1.02 µM | 0.172 µM | 0.315 µM | 0.0443 µM | 0.185 µM | 0.291 µM | 0.818 µM | 0.916 µM | 2.59 µM | 0.235 µM | 0.595 µM | 1.29 µM | 2.88 µM | 1.65 µM | 3.1 µM |
| C[C@]12CC[C@H]3[C@@H](CCC4=CC(=O)CC[C@@]43C)[C@@H]1CC[C@@H]2C(=O)COS(=O)(=O)c1ccc(Br)cc1 |  | 3.01 µM |  | 53.1 µM |  | 34.4 µM |  | 22.7 µM |  | 31.7 µM |  | 44.8 µM |  |  |  |  |  | 8.62 µM |  | 28 µM |
